Laboratory results from patent EP4818168A1, “FUSED RING COMPOUND, PHARMACEUTICAL COMPOSITION THEREOF AND USE THEREOF” (priority 2023, dated 2025).
Like-named read-outs stand apart in the source and are kept apart here.

Target: T1, AURKA (Homo sapiens, UniProt O14965)
T1 construct: endogenous in cells; host or cells: Jurkat cells
T1 sequence (O14965 1-403): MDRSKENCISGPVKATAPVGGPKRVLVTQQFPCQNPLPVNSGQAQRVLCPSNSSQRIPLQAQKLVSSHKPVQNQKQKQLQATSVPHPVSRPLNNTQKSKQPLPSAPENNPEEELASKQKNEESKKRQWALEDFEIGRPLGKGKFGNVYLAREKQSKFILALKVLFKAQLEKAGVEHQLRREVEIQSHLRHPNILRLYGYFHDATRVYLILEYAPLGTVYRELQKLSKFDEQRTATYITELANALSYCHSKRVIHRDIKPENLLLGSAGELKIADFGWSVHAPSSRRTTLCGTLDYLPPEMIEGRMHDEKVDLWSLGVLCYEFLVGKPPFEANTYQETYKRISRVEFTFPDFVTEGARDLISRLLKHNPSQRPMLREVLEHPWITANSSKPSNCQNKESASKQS
Assay type: cell-based
Details: Jurkat cells, 24 h
Text: WB is a classical biochemical experimental method used to detect the abundance of a target protein in a sample of cells or biological tissue. It relies on specific antigen-antibody binding to detect protein signals from the sample processed by gel electrophoresis: the protein specifically binds to a primary antibody at an epitope; the primary antibody is then conjugated with a secondary antibody to amplify the signal cascade; the signal is read out by chemiluminescent or fluorescent detection. The intracellular protein content is ultimately characterized by the intensity of the optical signals. […] The DC50 value can be calculated by curve fitting of the protein WB exposure signals.
The experimental procedure is as follows: • 1. Seed Jurkat cells into a 12-well plate at 1×10^6 cells/500 µL/well. • 2. Mix the culture medium with the compound to a concentration that is twice the desired final concentration. […] Transfer the cell suspension to a centrifuge tube. Rinse the 12-well plate with PBS and then transfer the PBS from the plate to the same centrifuge tube. Centrifuge at 3000 rpm for 5 min at room temperature. Aspirate the supernatant using a vacuum pump. […] Lyse on ice for 20 min. • 4. Centrifuge the lysed sample at 13000 rpm for 20 min at 4°C. Mix the supernatant with 5× protein loading buffer. Boil at 100°C for 5 min and then cool. Store the denatured protein sample at -20°C. • 5. […] Run electrophoresis at 80 V for 20 min, and then at 120 V constant voltage for 60 min. • 6. Transfer the protein onto a nitrocellulose membrane in an ice bath at 250 mA constant current for 90 min. • 7. […] Incubate with a primary antibody overnight at 4°C. • 9. […] Incubate with a secondary antibody for 1-2 h at room temperature. • 10. […] Expose and image the membrane using a LICOR Odyssey DLx imager.

Row | SMILES | Percentage of AURKA Degradation Induced by 100 nM Compound in Jurkat Cells (Table 1) | Percentage of AURKA Degradation Induced by 1 µM Compound in Jurkat Cells (Table 1) | Percentage of AURKA Degradation Induced by 100 nM Compound in Jurkat Cells (Table 2) | Percentage of AURKA Degradation Induced by 1 µM Compound in Jurkat Cells (Table 2)
1 | COc1cc(Nc2ncc3c(n2)-c2ccc(Cl)cc2C(c2c(F)cccc2OC)=NC3)ccc1C(=O)N[C@H]1C[C@@H](C#Cc2cccc3c2CN(C2CCC(=O)NC2=O)C3=O)C1 (relative stereo) [Compound A6] | ++ (30% < Degradation ≤ 70%) | + (Degradation ≤ 30%) | – | –
2 | O=C1CCN(c2cncc(N3CCC(N4CC5(CN(c6cccc(Nc7ncc8c(n7)-c7ccc(Cl)cc7C(c7c(F)cccc7F)=NC8)c6)C5)C4)CC3)c2)C(=O)N1 [Compound A241] | – | – | +++ (Degradation > 70%) | ++ (30% < Degradation ≤ 70%)
3 | Cc1ccc(N2CCN(CCC#Cc3cccc(Nc4ncc5c(n4)-c4ccc(Cl)cc4C(c4c(F)cccc4F)=NC5)c3)CC2)cc1N1CCC(=O)NC1=O [Compound A117] | – | – | ++ (30% < Degradation ≤ 70%) | ++ (30% < Degradation ≤ 70%)
4 | O=C1CCN(C23CC(N4CCN(CCNC(=O)c5ccc(Nc6ncc7c(n6)-c6ccc(Cl)cc6C(c6c(F)cccc6F)=NC7)cc5)CC4)(C2)C3)C(=O)N1 [Compound A92] | – | – | + (Degradation ≤ 30%) | + (Degradation ≤ 30%)
5 | COc1cc(Nc2ncc3c(n2)-c2ccc(Cl)cc2C(c2c(F)cccc2OC)=NC3)ccc1C(=O)NCCOCCNc1cccn2c(N3CCC(=O)NC3=O)cnc12 [Compound A20] | ++ (30% < Degradation ≤ 70%) | ++ (30% < Degradation ≤ 70%) | – | –
6 | O=C1CCN(c2ccc(N3CCC4(CC3)CC(NC(=O)c3ccc(Nc5ncc6c(n5)-c5ccc(Cl)cc5C(c5ccccc5Cl)=NC6)cc3)C4)nc2)C(=O)N1 [Compound A119] | – | – | +++ (Degradation > 70%) | +++ (Degradation > 70%)
7 | O=C1CCN(c2ccc(N3CCN(CCn4ccnc4-c4ccc(Nc5ncc6c(n5)-c5ccc(Cl)cc5C(c5c(F)cccc5F)=NC6)cc4)CC3)cc2)C(=O)N1 [Compound A111] | – | – | + (Degradation ≤ 30%) | + (Degradation ≤ 30%)
8 | O=C1CCN(c2ccc(N3CCC(N4CCN(c5ccc(Nc6ncc7c(n6)-c6ccc(Cl)cc6C(C6CC6)=NC7)cc5)C(=O)C4)CC3)nc2)C(=O)N1 [Compound A328] | – | – | ++ (30% < Degradation ≤ 70%) | ++ (30% < Degradation ≤ 70%)
9 | CN(C)CCOc1ccc2c(c1)C(c1c(F)cccc1F)=NCc1cnc(Nc3ccc(N4CC(CN5CCN(c6ccc(N7CCC(=O)NC7=O)cn6)CC5)C4)cc3)nc1-2 [Compound A260] | – | – | ++ (30% < Degradation ≤ 70%) | ++ (30% < Degradation ≤ 70%)
10 | O=C1CCN(c2ccc(N3CCN(CC4CN([C@H]5CC[C@H](Nc6ncc7c(n6)-c6ccc(Cl)cc6C(c6c(F)cccc6F)=NC7)CC5)C4)CC3)nc2)C(=O)N1 [Compound A246] | – | – | + (Degradation ≤ 30%) | ++ (30% < Degradation ≤ 70%)
11 | O=C1CCN(C23CCC(N4CCN(CCNC(=O)c5ccc(Nc6ncc7c(n6)-c6ccc(Cl)cc6C(c6c(F)cccc6F)=NC7)cc5)CC4)(CC2)CC3)C(=O)N1 [Compound A91] | – | – | + (Degradation ≤ 30%) | + (Degradation ≤ 30%)
12 | Cc1c(N2CCN(CCc3cccc(Nc4ncc5c(n4)-c4ccc(Cl)cc4C(c4c(F)cccc4F)=NC5)c3)CC2)cncc1N1CCC(=O)NC1=O [Compound A162] | – | – | ++ (30% < Degradation ≤ 70%) | ++ (30% < Degradation ≤ 70%)
13 | O=C1CCN(c2ccc(N3CCC(Cn4cnc(-c5ccc(Nc6ncc7c(n6)-c6ccc(Cl)cc6C(c6c(F)cccc6F)=NC7)cc5)c4)CC3)nc2)C(=O)N1 [Compound A159] | – | – | +++ (Degradation > 70%) | +++ (Degradation > 70%)
14 | O=C1CCN(c2cnc(N3CC(N4CCN(c5ccc(Nc6ncc7c(n6)-c6ccc(Cl)cc6C(c6c(F)cccc6F)=NC7)cc5)C(=O)C4)C3)s2)C(=O)N1 [Compound A201] | – | – | ++ (30% < Degradation ≤ 70%) | ++ (30% < Degradation ≤ 70%)
15 | O=C1CCN(c2cccc(N3CC4(CC(NC(=O)c5ccc(Nc6ncc7c(n6)-c6ccc(Cl)cc6C(c6c(F)cccc6F)=NC7)cc5)C4)C3)c2)C(=O)N1 [Compound A62] | ++ (30% < Degradation ≤ 70%) | ++ (30% < Degradation ≤ 70%) | – | –
16 | O=C1CCN(c2ccc(N3CCC(N4CCN(c5ccc(Nc6ncc7c(n6)-c6ccc(Cl)cc6C(c6c(F)cccc6F)=NC7)cc5)CC4=O)CC3)nc2)C(=O)N1 [Compound A295] | – | – | +++ (Degradation > 70%) | ++ (30% < Degradation ≤ 70%)
17 | COc1cc(Nc2ncc3c(n2)-c2ccc(Cl)cc2C(c2c(F)cccc2OC)=NC3)ccc1C(=O)NCCN1CCN(c2ccc(-n3ccc(=O)[nH]c3=O)cn2)CC1 [Compound A31] | ++ (30% < Degradation ≤ 70%) | ++ (30% < Degradation ≤ 70%) | – | –
18 | O=C1CCN(c2ccc(C#CCN3CCn4c(cnc4-c4ccc(Nc5ncc6c(n5)-c5ccc(Cl)cc5C(c5c(F)cccc5F)=NC6)cc4)C3)cc2)C(=O)N1 [Compound A139] | – | – | +++ (Degradation > 70%) | +++ (Degradation > 70%)
19 | O=C1CCN(c2ccc(N3CC4(C3)CN(C3CN(c5ccc(Nc6ncc7c(n6)-c6ccc(Cl)cc6C(c6c(F)cccc6F)=NC7)cc5)C3)C4)nc2)C(=O)N1 [Compound A204] | – | – | +++ (Degradation > 70%) | ++ (30% < Degradation ≤ 70%)
20 | Cc1c(N2CCC3(CC2)CN(Cc2cccc(Nc4ncc5c(n4)-c4ccc(Cl)cc4C(c4c(F)cccc4F)=NC5)c2)C3)cccc1N1CCC(=O)NC1=O [Compound A163] | – | – | ++ (30% < Degradation ≤ 70%) | + (Degradation ≤ 30%)
21 | O=C1CCN(c2ccc(N3CCN(CCNc4ccc(Nc5ncc6c(n5)-c5ccc(Cl)cc5C(c5c(F)cccc5F)=NC6)cc4)CC3)cc2)C(=O)N1 [Compound A108] | – | – | + (Degradation ≤ 30%) | + (Degradation ≤ 30%)
22 | O=C1CCN(c2ccc([C@H]3C[C@H](N4CC(NC(=O)c5ccc(Nc6ncc7c(n6)-c6ccc(Cl)cc6C(c6c(F)cccc6F)=NC7)cc5)C4)C3)nc2)C(=O)N1 [Compound A113] | – | – | +++ (Degradation > 70%) | ++ (30% < Degradation ≤ 70%)
23 | O=C1CCN(c2ccc(N3CC4(CC(NC(=O)c5ccc(Nc6ncc7c(n6)-c6ccc(Cl)cc6C(c6c(F)cccc6F)=NC7)cc5)C4)C3)nc2)C(=O)N1 [Compound A60] | +++ (Degradation > 70%) | +++ (Degradation > 70%) | – | –
